Measurements taken from article PMC9014845 (Clinical cancer research : an official journal of the …, 2019).
“Also recorded” adds a separate entry of the source.

Test system: patients with advanced solid tumors harboring FGFR1–3 gene alterations
Test: Phase I dose-escalation: safety/tolerability
Assay type: in vivo, human
Conditions: for Any TEAE / Any TEAE leading to discontinuation / Any TEAE leading to dose reduction / Any TEAE leading to treatment interruption / Serious TEAE / TEAE: ALT increased / TEAE: AST increased / TEAE: Abdominal pain / TEAE: Alopecia / TEAE: Anemia / TEAE: Back pain / TEAE: Blurred vision / TEAE: Constipation / TEAE: Creatinine increased (in blood) / TEAE: Decreased appetite / TEAE: Diarrhea / TEAE: Dry eye / TEAE: Dry mouth / TEAE: Dry skin / TEAE: Dysgeusia / TEAE: Dyspnea / TEAE: Edema peripheral / TEAE: Fatigue / TEAE: Hyperphosphatemia / TEAE: Hypertension / TEAE: Hypokalemia / TEAE: Hypomagnesemia / TEAE: Mucosal inflammation / TEAE: Myalgia / TEAE: Nail changes / TEAE: Nausea / TEAE: Stomatitis / TEAE: Vomiting: all grades

Substance: Debio 1347
- DLT observed (60 mg): grade-2 dry mouth and eyes
- Any TEAE (60 mg (n=10)): 10 (100) Number (%) of patients
- Any TEAE leading to discontinuation (60 mg (n=10)): 1 (10) Number (%) of patients
- Any TEAE leading to dose reduction (60 mg (n=10)): 2 (20) Number (%) of patients
- Any TEAE leading to treatment interruption (60 mg (n=10)): 6 (60) Number (%) of patients
- Serious TEAE (60 mg (n=10)): 2 (20) Number (%) of patients
- TEAE: ALT increased (60 mg (n=10)): 1 (10) Number (%) of patients
- TEAE: AST increased (60 mg (n=10)): 2 (20) Number (%) of patients
- TEAE: Abdominal pain (60 mg (n=10)): 3 (30) Number (%) of patients
- TEAE: Alopecia (60 mg (n=10)): 1 (10) Number (%) of patients
- TEAE: Anemia (60 mg (n=10)): 4 (40) Number (%) of patients
- TEAE: Back pain (60 mg (n=10)): 0 Number (%) of patients
- TEAE: Blurred vision (60 mg (n=10)): 1 (10) Number (%) of patients
- TEAE: Constipation (60 mg (n=10)): 2 (20) Number (%) of patients
- TEAE: Creatinine increased (in blood) (60 mg (n=10)): 2 (20) Number (%) of patients
- TEAE: Decreased appetite (60 mg (n=10)): 3 (30) Number (%) of patients
- TEAE: Diarrhea (60 mg (n=10)): 7 (70) Number (%) of patients
- TEAE: Dry eye (60 mg (n=10)): 2 (20) Number (%) of patients
- TEAE: Dry mouth (60 mg (n=10)): 4 (40) Number (%) of patients
- TEAE: Dry skin (60 mg (n=10)): 0 Number (%) of patients
- TEAE: Dysgeusia (60 mg (n=10)): 1 (10) Number (%) of patients
- TEAE: Dyspnea (60 mg (n=10)): 3 (30) Number (%) of patients
- TEAE: Edema peripheral (60 mg (n=10)): 1 (10) Number (%) of patients
- TEAE: Fatigue (60 mg (n=10)): 5 (50) Number (%) of patients
- TEAE: Hyperphosphatemia (60 mg (n=10)): 9 (90) Number (%) of patients
- TEAE: Hypertension (60 mg (n=10)): 1 (10) Number (%) of patients
- TEAE: Hypokalemia (60 mg (n=10)): 0 Number (%) of patients
- TEAE: Hypomagnesemia (60 mg (n=10)): 2 (20) Number (%) of patients
- TEAE: Mucosal inflammation (60 mg (n=10)): 1 (10) Number (%) of patients
- TEAE: Myalgia (60 mg (n=10)): 1 (10) Number (%) of patients
- TEAE: Nail changes (60 mg (n=10)): 2 (20) Number (%) of patients
- TEAE: Nausea (60 mg (n=10)): 3 (30) Number (%) of patients
- TEAE: Stomatitis (60 mg (n=10)): 1 (10) Number (%) of patients
- TEAE: Vomiting (60 mg (n=10)): 2 (20) Number (%) of patients
- DLT observed (80 mg): hyperamylasemia; also recorded: grade-3 asymptomatic hypercalcemia
- Any TEAE (80 mg (n=10)): 10(100%) Number (%) of patients
- Any TEAE leading to discontinuation (80 mg (n=10)): 3 (30) Number (%) of patients
- Any TEAE leading to dose reduction (80 mg (n=10)): 2 (20) Number (%) of patients
- Any TEAE leading to treatment interruption (80 mg (n=10)): 5 (50) Number (%) of patients
- Serious TEAE (80 mg (n=10)): 3 (30) Number (%) of patients
- TEAE: ALT increased (80 mg (n=10)): 1 (10) Number (%) of patients
- TEAE: AST increased (80 mg (n=10)): 1 (10) Number (%) of patients
- TEAE: Abdominal pain (80 mg (n=10)): 3 (30) Number (%) of patients
- TEAE: Alopecia (80 mg (n=10)): 1 (10) Number (%) of patients
- TEAE: Anemia (80 mg (n=10)): 2 (20) Number (%) of patients
- TEAE: Back pain (80 mg (n=10)): 0 Number (%) of patients
- TEAE: Blurred vision (80 mg (n=10)): 2 (20) Number (%) of patients
- TEAE: Constipation (80 mg (n=10)): 3 (30) Number (%) of patients
- TEAE: Creatinine increased (in blood) (80 mg (n=10)): 2 (20) Number (%) of patients
- TEAE: Decreased appetite (80 mg (n=10)): 5 (50) Number (%) of patients
- TEAE: Diarrhea (80 mg (n=10)): 5 (50) Number (%) of patients
- TEAE: Dry eye (80 mg (n=10)): 0 Number (%) of patients
- TEAE: Dry mouth (80 mg (n=10)): 5 (50) Number (%) of patients
- TEAE: Dry skin (80 mg (n=10)): 2 (20) Number (%) of patients
- TEAE: Dysgeusia (80 mg (n=10)): 2 (20) Number (%) of patients
- TEAE: Dyspnea (80 mg (n=10)): 1 (10) Number (%) of patients
- TEAE: Edema peripheral (80 mg (n=10)): 2 (20) Number (%) of patients
- TEAE: Fatigue (80 mg (n=10)): 5 (50) Number (%) of patients
- TEAE: Hyperphosphatemia (80 mg (n=10)): 9 (90) Number (%) of patients
- TEAE: Hypertension (80 mg (n=10)): 0 Number (%) of patients
- TEAE: Hypokalemia (80 mg (n=10)): 2 (20) Number (%) of patients
- TEAE: Hypomagnesemia (80 mg (n=10)): 1 (10) Number (%) of patients
- TEAE: Mucosal inflammation (80 mg (n=10)): 3 (30) Number (%) of patients
- TEAE: Myalgia (80 mg (n=10)): 3 (30) Number (%) of patients
- TEAE: Nail changes (80 mg (n=10)): 3 (30) Number (%) of patients
- TEAE: Nausea (80 mg (n=10)): 3 (30) Number (%) of patients
- TEAE: Stomatitis (80 mg (n=10)): 3 (30) Number (%) of patients
- TEAE: Vomiting (80 mg (n=10)): 1 (10) Number (%) of patients
- DLT observed (110 mg): stomatitis; also recorded: grade-3 bilirubin increase and hyper-phosphatemia
- Any TEAE (110 mg (n=9)): 9 (100%) Number (%) of patients
- Any TEAE leading to discontinuation (110 mg (n=9)): 1 (11) Number (%) of patients
- Any TEAE leading to dose reduction (110 mg (n=9)): 7 (78) Number (%) of patients
- Any TEAE leading to treatment interruption (110 mg (n=9)): 8 (89) Number (%) of patients
- Serious TEAE (110 mg (n=9)): 4 (44) Number (%) of patients
- TEAE: ALT increased (110 mg (n=9)): 1 (11) Number (%) of patients
- TEAE: AST increased (110 mg (n=9)): 1 (11) Number (%) of patients
- TEAE: Abdominal pain (110 mg (n=9)): 2 (22) Number (%) of patients
- TEAE: Alopecia (110 mg (n=9)): 4 (44) Number (%) of patients
- TEAE: Anemia (110 mg (n=9)): 3 (33) Number (%) of patients
- TEAE: Back pain (110 mg (n=9)): 1 (11) Number (%) of patients
- TEAE: Blurred vision (110 mg (n=9)): 2 (22) Number (%) of patients
- TEAE: Constipation (110 mg (n=9)): 3 (33) Number (%) of patients
- TEAE: Creatinine increased (in blood) (110 mg (n=9)): 0 Number (%) of patients
- TEAE: Decreased appetite (110 mg (n=9)): 3 (33) Number (%) of patients
- TEAE: Diarrhea (110 mg (n=9)): 3 (33) Number (%) of patients
- TEAE: Dry eye (110 mg (n=9)): 4 (44) Number (%) of patients
- TEAE: Dry mouth (110 mg (n=9)): 4 (44) Number (%) of patients
- TEAE: Dry skin (110 mg (n=9)): 5 (55) Number (%) of patients
- TEAE: Dysgeusia (110 mg (n=9)): 4 (44) Number (%) of patients
- TEAE: Dyspnea (110 mg (n=9)): 3 (33) Number (%) of patients
- TEAE: Edema peripheral (110 mg (n=9)): 2 (22) Number (%) of patients
- TEAE: Fatigue (110 mg (n=9)): 5 (55) Number (%) of patients
- TEAE: Hyperphosphatemia (110 mg (n=9)): 9 (100) Number (%) of patients
- TEAE: Hypertension (110 mg (n=9)): 0 Number (%) of patients
- TEAE: Hypokalemia (110 mg (n=9)): 1 (11) Number (%) of patients
- TEAE: Hypomagnesemia (110 mg (n=9)): 0 Number (%) of patients
- TEAE: Mucosal inflammation (110 mg (n=9)): 2 (22) Number (%) of patients
- TEAE: Myalgia (110 mg (n=9)): 3 (33) Number (%) of patients
- TEAE: Nausea (110 mg (n=9)): 6 (67) Number (%) of patients
- TEAE: Stomatitis (110 mg (n=9)): 7 (78) Number (%) of patients
- TEAE: Vomiting (110 mg (n=9)): 3 (33) Number (%) of patients
- Any TEAE (150 mg (n=3)): 3 (100%) Number (%) of patients
- Any TEAE leading to discontinuation (150 mg (n=3)): 0 (0) Number (%) of patients
- Any TEAE leading to treatment interruption (150 mg (n=3)): 3 (100) Number (%) of patients
- Serious TEAE (150 mg (n=3)): 2 (67) Number (%) of patients
- TEAE: ALT increased (150 mg (n=3)): 0 Number (%) of patients
- TEAE: AST increased (150 mg (n=3)): 0 Number (%) of patients
- TEAE: Abdominal pain (150 mg (n=3)): 1 (33) Number (%) of patients
- TEAE: Alopecia (150 mg (n=3)): 2 (67) Number (%) of patients
- TEAE: Anemia (150 mg (n=3)): 0 Number (%) of patients
